What is called MIC is the lowest concentration found to suppress growth. A low value points to inhibition by little substance.

Format in all cases: functional
The subject of one assay is Pseudomonas aeruginosa. The assay is described as follows: Antimicrobial activity against Pseudomonas aeruginosa ATCC 13525 by MTT assay. A general note: Formazan colour is commonly taken as a measure of viable cells.
A further assay deals with Staphylococcus aureus. Briefly: Antimicrobial activity against Staphylococcus aureus ATCC 6538 by MTT assay.
The next assay concerns Bacillus subtilis. Briefly: Antimicrobial activity against Bacillus subtilis ATCC 6633 by MTT assay.
A further assay relates to Enterobacter cloacae. Briefly: Antimicrobial activity against Enterobacter cloacae ATCC 13047 by MTT assay.
For the next assay, the system named is Enterococcus faecalis. Briefly: Antimicrobial activity against Streptococcus faecalis ATCC 9790 by MTT assay.
A further assay relates to Escherichia coli. The assay is described as follows: Antimicrobial activity against Escherichia coli ATCC 35218 by MTT assay.

In brackets after ≈: the same amount, converted by molar mass. A value given as a limit tells only on which side of the number the result lay.

As for `CC1(C)S[C@@H]2[C@H](NC(=O)Cc3ccccc3)C(=O)N2[C@H]1C(=O)O` [PENICILLIN G], the minimal inhibitory concentration (MIC) was determined as 6.25 µg/mL (≈ 18.7 µM) in the assay on Pseudomonas aeruginosa; 6.25 µg/mL (≈ 18.7 µM) against Staphylococcus aureus; 1.56 µg/mL (≈ 4.67 µM) with Bacillus subtilis; 3.12 µg/mL (≈ 9.35 µM) against Enterobacter cloacae; 1.56 µg/mL (≈ 4.67 µM) against Enterococcus faecalis; 3.12 µg/mL (≈ 9.35 µM) in the assay with Escherichia coli.
On to `CC(=O)N1N=C(c2ccccc2F)CC1c1ccc(Cl)cc1` (stereo not given), for which the MIC was 12.5 µg/mL (≈ 39.5 µM) against Pseudomonas aeruginosa; greater than 50 µg/mL against Staphylococcus aureus; 12.5 µg/mL (≈ 39.5 µM) in the assay with Bacillus subtilis; greater than 50 µg/mL with Enterobacter cloacae; 12.5 µg/mL (≈ 39.5 µM) with Enterococcus faecalis; 25 µg/mL (≈ 78.9 µM) in the assay with Escherichia coli.
Regarding `CC(=O)N1N=C(c2ccccc2)CC1c1ccc(C)cc1` (stereo not given), the MIC against Pseudomonas aeruginosa was 12.5 µg/mL (≈ 44.9 µM); with Staphylococcus aureus, greater than 50 µg/mL; against Bacillus subtilis, greater than 50 µg/mL; in the assay on Enterobacter cloacae it was 25 µg/mL (≈ 89.8 µM); in the assay with Enterococcus faecalis it was 6.25 µg/mL (≈ 22.5 µM); against Escherichia coli, 25 µg/mL (≈ 89.8 µM).
Turning to `CC(=O)N1N=C(c2ccccc2)CC1c1ccc(Cl)cc1` (stereo not given), the MIC is 12.5 µg/mL (≈ 41.8 µM) in the assay on Pseudomonas aeruginosa; 12.5 µg/mL (≈ 41.8 µM) against Staphylococcus aureus; greater than 50 µg/mL in the assay with Bacillus subtilis; 25 µg/mL (≈ 83.7 µM) against Enterobacter cloacae; 12.5 µg/mL (≈ 41.8 µM) against Enterococcus faecalis; 25 µg/mL (≈ 83.7 µM) against Escherichia coli.
On to `CC(=O)N1N=C(c2ccccc2F)CC1c1ccc(C)cc1` (stereo not given), for which the MIC against Pseudomonas aeruginosa was greater than 50 µg/mL; with Staphylococcus aureus it was greater than 50 µg/mL; in the assay on Bacillus subtilis, 25 µg/mL (≈ 84.4 µM); in the assay with Enterobacter cloacae, 12.5 µg/mL (≈ 42.2 µM); in the assay on Enterococcus faecalis, 25 µg/mL (≈ 84.4 µM); against Escherichia coli, 25 µg/mL (≈ 84.4 µM).
As to `CC(=O)N1N=C(c2ccc(Cl)c(Cl)c2)CC1c1ccc(Cl)cc1` (stereo not given), the MIC in the assay on Pseudomonas aeruginosa is 25 µg/mL (≈ 68 µM); with Staphylococcus aureus it was 25 µg/mL (≈ 68 µM); in the assay with Bacillus subtilis, 0.78 µg/mL (≈ 2.12 µM); against Enterobacter cloacae, greater than 50 µg/mL; against Enterococcus faecalis, 6.25 µg/mL (≈ 17 µM); in the assay on Escherichia coli, 25 µg/mL (≈ 68 µM).
With `CC(=O)N1N=C(c2ccccc2)CC1c1ccccc1` (stereo not given), the MIC was determined as 12.5 µg/mL (≈ 47.3 µM) against Pseudomonas aeruginosa; 25 µg/mL (≈ 94.6 µM) against Staphylococcus aureus; 25 µg/mL (≈ 94.6 µM) against Bacillus subtilis; 12.5 µg/mL (≈ 47.3 µM) in the assay on Enterobacter cloacae; 12.5 µg/mL (≈ 47.3 µM) in the assay on Enterococcus faecalis; 25 µg/mL (≈ 94.6 µM) in the assay on Escherichia coli.
On to `CC(=O)N1N=C(c2ccc(Br)cc2)CC1c1ccccc1` (stereo not given), for which the MIC against Pseudomonas aeruginosa is 12.5 µg/mL (≈ 36.4 µM); against Staphylococcus aureus, 6.25 µg/mL (≈ 18.2 µM); in the assay on Bacillus subtilis it was 50 µg/mL (≈ 146 µM); against Enterobacter cloacae it was greater than 50 µg/mL; against Enterococcus faecalis, 25 µg/mL (≈ 72.8 µM); against Escherichia coli, 12.5 µg/mL (≈ 36.4 µM).
`CC(=O)N1N=C(c2ccc(C)c(C)c2)CC1c1ccc(C)cc1` (stereo not given): the MIC in the assay with Pseudomonas aeruginosa is 3.12 µg/mL (≈ 10.2 µM); in the assay on Staphylococcus aureus it was 3.12 µg/mL (≈ 10.2 µM); against Bacillus subtilis, 12.5 µg/mL (≈ 40.8 µM); in the assay with Enterobacter cloacae, greater than 50 µg/mL; in the assay on Enterococcus faecalis, 12.5 µg/mL (≈ 40.8 µM); in the assay on Escherichia coli, greater than 50 µg/mL.
Consider `CC(=O)N1N=C(c2ccc(Br)cc2)CC1c1ccc(C)cc1` (stereo not given), for which the MIC in the assay with Pseudomonas aeruginosa stood at 1.56 µg/mL (≈ 4.37 µM); against Staphylococcus aureus, 6.25 µg/mL (≈ 17.5 µM); in the assay with Bacillus subtilis, 25 µg/mL (≈ 70 µM); against Enterobacter cloacae, 6.25 µg/mL (≈ 17.5 µM); with Enterococcus faecalis it was 50 µg/mL (≈ 140 µM); in the assay with Escherichia coli, 25 µg/mL (≈ 70 µM).
With `COc1ccc(C2CC(c3ccc(C)c(C)c3)=NN2C(C)=O)cc1` (stereo not given), the MIC in the assay on Pseudomonas aeruginosa came to 3.12 µg/mL (≈ 9.69 µM); in the assay with Staphylococcus aureus, 3.12 µg/mL (≈ 9.69 µM); against Bacillus subtilis, 12.5 µg/mL (≈ 38.8 µM); in the assay on Enterobacter cloacae, 12.5 µg/mL (≈ 38.8 µM); with Enterococcus faecalis, 12.5 µg/mL (≈ 38.8 µM); against Escherichia coli, 25 µg/mL (≈ 77.5 µM).
On to `CC(=O)N1N=C(c2ccc(Cl)c(Cl)c2)CC1c1ccc(Br)cc1` (stereo not given), for which the MIC is 25 µg/mL (≈ 60.7 µM) against Pseudomonas aeruginosa; greater than 50 µg/mL with Staphylococcus aureus; 1.56 µg/mL (≈ 3.79 µM) against Bacillus subtilis; 12.5 µg/mL (≈ 30.3 µM) in the assay with Enterobacter cloacae; 3.12 µg/mL (≈ 7.58 µM) in the assay on Enterococcus faecalis; 12.5 µg/mL (≈ 30.3 µM) against Escherichia coli.
For the compound `COc1ccc(C2CC(c3ccc(Cl)c(Cl)c3)=NN2C(C)=O)cc1` (stereo not given), the MIC in the assay with Pseudomonas aeruginosa is 12.5 µg/mL (≈ 34.4 µM); against Staphylococcus aureus, 25 µg/mL (≈ 68.8 µM); against Bacillus subtilis it was 3.12 µg/mL (≈ 8.6 µM); against Enterobacter cloacae, 25 µg/mL (≈ 68.8 µM); in the assay on Enterococcus faecalis, 6.25 µg/mL (≈ 17.2 µM); against Escherichia coli, greater than 50 µg/mL.
Take `CC(=O)N1N=C(c2ccccc2F)CC1c1ccc(Br)cc1` (stereo not given): the MIC was 12.5 µg/mL (≈ 34.6 µM) against Pseudomonas aeruginosa; 25 µg/mL (≈ 69.2 µM) against Staphylococcus aureus; 25 µg/mL (≈ 69.2 µM) against Bacillus subtilis; 12.5 µg/mL (≈ 34.6 µM) against Enterobacter cloacae; 25 µg/mL (≈ 69.2 µM) in the assay with Enterococcus faecalis; 25 µg/mL (≈ 69.2 µM) against Escherichia coli.
Consider `CC(=O)N1N=C(c2ccccc2)CC1c1ccc(Br)cc1` (stereo not given), for which the MIC in the assay with Pseudomonas aeruginosa is 25 µg/mL (≈ 72.8 µM); in the assay on Staphylococcus aureus, greater than 50 µg/mL; in the assay on Bacillus subtilis, 25 µg/mL (≈ 72.8 µM); in the assay on Enterobacter cloacae, 12.5 µg/mL (≈ 36.4 µM); against Enterococcus faecalis, 12.5 µg/mL (≈ 36.4 µM); with Escherichia coli, 12.5 µg/mL (≈ 36.4 µM).

(Values after ChEMBL document CHEMBL1208728, “Design, synthesis, and structure-activity relationships of pyrazole derivatives as potential FabH inhibitors” (Bioorg Med Chem Lett, 2010).)
